One data set concerns NLuc C. parvum (Calibr). Briefly: Calibr panel, UA Nanoluc C. parvum count. The data set is classed as cell-based. The following applies: Cryptosporidium parvum; for EC50: read-out: UA Nanoluc C. parvum Count EC50; for EC90: read-out: UA Nanoluc C. parvum Count EC90.
The subject of data set [1] is C. parvum Zambriski Laboratory isolate. Briefly: Calibr high-content imaging Cryptosporidium panel. The following applies: Cryptosporidium parvum; for EC50: read-out: Wild C. parvum Spot Count EC50; for EC90: read-out: Wild C. parvum Spot Count EC90. The data set is classed as cell-based, Cryptosporidium parvum.
The next data set is described as follows: 72H HEK293T Cytotoxicity. The data set is classed as cell-based. The following applies: human, HEK293T cells.
For data set [2], the system named is C. parvum U AZ Laboratory isolate. Briefly: microbe, parasite or virus in culture. The data set is classed as cell-based, Cryptosporidium parvum. The following applies: Cryptosporidium parvum; for EC50: Calibr Crypto Panel 2, 2018-06-18, read-out: Sterling Lab C. parvum Spot Count EC50; for EC90: Calibr Crypto Panel 2, read-out: Sterling Lab C. parvum Spot Count EC90.

Data set [3] in a line: HCT-8 host cell count (Calibr). The following applies: human.
The test system of data set [4] is C. parvum Bunch Grass Farms isolate. As to the kind of experiment: Calibr high-content imaging Cryptosporidium panel. It counts as cell-based, Cryptosporidium parvum. The following applies: Cryptosporidium parvum.
Another data set deals with C. hominis TU502 isolate. As to the kind of experiment: Calibr high-content imaging Cryptosporidium panel. It counts as cell-based, Cryptosporidium hominis. The following applies: Cryptosporidium hominis.
In another data set the target is T1, PPARУ (Homo sapiens, UniProt P37231).
T1 construct: Cerep (Eurofins, France)
T1 sequence (P37231 1-505): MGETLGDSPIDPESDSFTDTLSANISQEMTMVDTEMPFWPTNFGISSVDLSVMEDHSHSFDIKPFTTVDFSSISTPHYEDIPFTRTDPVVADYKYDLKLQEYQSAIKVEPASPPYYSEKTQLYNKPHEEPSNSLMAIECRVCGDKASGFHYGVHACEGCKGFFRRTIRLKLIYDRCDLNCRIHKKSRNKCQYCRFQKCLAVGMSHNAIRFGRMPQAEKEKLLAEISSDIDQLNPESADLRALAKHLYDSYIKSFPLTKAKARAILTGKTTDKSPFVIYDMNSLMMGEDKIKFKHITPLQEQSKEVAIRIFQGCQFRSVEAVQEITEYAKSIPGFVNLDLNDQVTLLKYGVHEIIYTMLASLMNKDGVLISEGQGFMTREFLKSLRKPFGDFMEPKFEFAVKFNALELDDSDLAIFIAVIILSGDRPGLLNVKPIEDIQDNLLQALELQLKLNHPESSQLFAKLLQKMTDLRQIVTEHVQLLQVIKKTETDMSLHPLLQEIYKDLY
As to the kind of experiment: Cerep cellular and nuclear receptor functional assay. It counts as cell-based. The following applies: read-out: IC50, antagonist effect.

In the next data set the target is T2, 5-HT2B (Homo sapiens, UniProt P41595).
T2 construct: Cerep (Eurofins, France)
T2 sequence (P41595 whole entry): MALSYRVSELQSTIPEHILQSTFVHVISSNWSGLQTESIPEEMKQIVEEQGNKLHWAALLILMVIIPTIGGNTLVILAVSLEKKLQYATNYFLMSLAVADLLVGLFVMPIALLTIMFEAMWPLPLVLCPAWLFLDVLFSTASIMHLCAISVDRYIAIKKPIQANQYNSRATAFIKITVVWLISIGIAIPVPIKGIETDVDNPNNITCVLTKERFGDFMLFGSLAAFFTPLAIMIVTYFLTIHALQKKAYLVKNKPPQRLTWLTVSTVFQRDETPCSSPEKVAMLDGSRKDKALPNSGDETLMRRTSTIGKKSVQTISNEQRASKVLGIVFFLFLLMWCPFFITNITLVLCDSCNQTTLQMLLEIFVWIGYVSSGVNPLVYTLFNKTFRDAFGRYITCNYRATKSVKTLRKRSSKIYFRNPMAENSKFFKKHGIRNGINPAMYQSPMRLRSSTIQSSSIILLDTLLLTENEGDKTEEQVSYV
The data set is described as above. The following applies: read-out: IC50, antagonist effect. The data set is classed as cell-based.

Setting [5] is: CC50, HCT-8 cells infected with BGF Cp, Replicate 1.
Where [6] appears, read: CC50, HCT-8 cells infected with BGF Cp, Replicate 2.
Where [7] appears, read: CC50, HCT-8 cells infected with Ch, Replicate 1.
Setting [8] is: CC50, HCT-8 cells infected with Ch, Replicate 2.
Where [9] appears, read: CC50, HCT-8 cells infected with UA Nluc Cp, Replicate 1.
Where [10] appears, read: CC50, HCT-8 cells infected with UA Nluc Cp, Replicate 2.
[11] abbreviates: HCT-8 Cell Count CC50, host cells infected with Sterling oocysts.
Where [12] appears, read: read-out: Bunch Grass Farm C. parvum Count EC50, Crypto Panel 3 Replicate 1.
Setting [13] is: read-out: Bunch Grass Farm C. parvum Count EC50, Crypto Panel 3 Replicate 2.
Where [14] appears, read: read-out: Bunch Grass Farm C. parvum Count EC90, Replicate 1.
Setting [15] is: read-out: Bunch Grass Farm C. parvum Count EC90, Replicate 2.
The mark [16] stands for this setting: read-out: Bunch Grass Farm C. parvum Spot Count EC50, Calibr Crypto Panel 2.
The mark [17] stands for this setting: read-out: Bunch Grass Farm C. parvum Spot Count EC90, Calibr Crypto Panel 2.
Where [18] appears, read: read-out: C. hominis Spot Count EC50, Calibr Crypto Panel 2, 2018-07-02.
Setting [19] is: read-out: C. hominis Spot Count EC90, Calibr Crypto Panel 2.
Setting [20] is: read-out: TU502 C. hominis Count EC50, Replicate 1.
Where [21] appears, read: read-out: TU502 C. hominis Count EC50, Replicate 2.
The mark [22] stands for this setting: read-out: TU502 C. hominis Count EC90, Replicate 1.
Setting [23] is: read-out: TU502 C. hominis Count EC90, Replicate 2.
Setting [24] is: Crypto Panel 3 Replicate 1, read-out: Bunch Grass Farm C. parvum Count EC50.
Where [25] appears, read: Crypto Panel 3 Replicate 2, read-out: Bunch Grass Farm C. parvum Count EC50.
Where [26] appears, read: Replicate 1, read-out: Bunch Grass Farm C. parvum Count EC90.
[27] abbreviates: Replicate 2, read-out: Bunch Grass Farm C. parvum Count EC90.
The mark [28] stands for this setting: Replicate 1, read-out: TU502 C. hominis Count EC50.
The mark [29] stands for this setting: Replicate 1, read-out: TU502 C. hominis Count EC90.
Where [30] appears, read: Replicate 2, read-out: TU502 C. hominis Count EC50.
Where [31] appears, read: Replicate 2, read-out: TU502 C. hominis Count EC90.

Each structure is given as a SMILES string. Where two headings read alike, the source gives them in different places.

Consider `O=c1[nH]c(=O)n([C@H]2C[C@H](O)[C@@H](CO)O2)cc1F` [5-fluoro-2'-deoxyuridine], for which the concentration for a half-maximal effect (EC50) in the data set on NLuc C. parvum (Calibr) (Replicate 1) was 43.1 nM; in the data set with NLuc C. parvum (Calibr) (Replicate 2), 33.1 nM; in data set [1], 5.29 nM; in data set [2], 3.67 nM; in data set [4] (setting [12]), 39.7 nM; in data set [4] (setting [13]) it was 29 nM. Moreover, the EC50 was 3.1 nM in [4] (setting [16]), 33.5 nM in the data set on C. hominis TU502 isolate (setting [18]), 51.1 nM in the data set on C. hominis TU502 isolate (setting [20]) and 29.2 nM with C. hominis TU502 isolate (setting [21]). In addition, the concentration for an effect of 90% (EC90) in the data set on NLuc C. parvum (Calibr) (Replicate 1) came out at 158 nM; in the data set with NLuc C. parvum (Calibr) (Replicate 2), 117 nM; in [1], 80.4 nM; in data set [2], 9.97 nM; in data set [4] (setting [14]) it was 68.8 nM; in data set [4] (setting [15]) it was 86 nM. Further, the EC90 in data set [4] (setting [17]) came to 11.7 nM; in the data set on C. hominis TU502 isolate (setting [19]) it was 679 nM; in the data set on C. hominis TU502 isolate (setting [22]), 196 nM; in the data set with C. hominis TU502 isolate (setting [23]), 222 nM. Half-maximal cytotoxicity in the data set “72H HEK293T Cytotoxicity” (CC50 at 72 h) was put at 7.23 nM. Besides, the CC50 in [3] (setting [5]) came to 192 nM; in [3] (setting [6]), 80.3 nM; in data set [3] (setting [7]) it was 71.8 nM; in data set [3] (setting [8]) it was 9.05 nM; in data set [3] (setting [9]), 196 nM; in [3] (setting [10]), 43 nM. Also, the CC50 in data set [3] (setting [11]) is 79 nM.

In the case of `COc1ccc(C[C@H](N)C(=O)N[C@H]2[C@@H](O)[C@H](n3cnc4c(N(C)C)ncnc43)O[C@@H]2CO)cc1` [Puromycin], the concentration for a half-maximal effect (EC50) in the data set on NLuc C. parvum (Calibr) (Replicate 1) was 337 nM; in the data set on NLuc C. parvum (Calibr) (Replicate 2), 233 nM; in data set [1], 274 nM; in data set [2] it was 165 nM; in [4] (setting [12]) it was 403 nM; in [4] (setting [13]), 274 nM. Moreover, the EC50 is 177 nM in data set [4] (setting [16]), 1840 nM in the data set on C. hominis TU502 isolate (setting [18]), 730 nM in the data set with C. hominis TU502 isolate (setting [20]) and 504 nM in the data set with C. hominis TU502 isolate (setting [21]). The 90% effect concentration (EC90) worked out at 1020 nM with NLuc C. parvum (Calibr) (Replicate 1); 1320 nM in the data set on NLuc C. parvum (Calibr) (Replicate 2); 1920 nM in [1]; 406 nM in data set [2]; 1140 nM in data set [4] (setting [14]); 847 nM in [4] (setting [15]). Also, the EC90 in data set [4] (setting [17]) came out at 398 nM; in the data set on C. hominis TU502 isolate (setting [19]) it was 3570 nM; in the data set on C. hominis TU502 isolate (setting [22]) it was 1900 nM; in the data set with C. hominis TU502 isolate (setting [23]) it was 1500 nM. Also, half-maximal cytotoxicity in “72H HEK293T Cytotoxicity” (CC50 at 72 h) was put at 319 nM. Also, the CC50 in data set [3] (setting [5]) was found to be 3090 nM; in [3] (setting [6]) it was 2810 nM; in [3] (setting [7]), 2660 nM; in [3] (setting [8]), 2810 nM; in data set [3] (setting [9]), 2970 nM; in data set [3] (setting [10]), 2370 nM. Besides, the half-maximal cytotoxic concentration (CC50) in data set [3] (setting [11]) came out at 3100 nM.

Turning to `O=C(Nc1ccccc1)c1cc([N+](=O)[O-])ccc1Cl` [GW 9662, reference compound], the IC50 at PPARУ was 34 nM.

Turning to `CC(=O)Oc1ccccc1C(=O)Nc1ncc([N+](=O)[O-])s1` [Nitazoxanide], the concentration for a half-maximal effect (EC50) in the data set on NLuc C. parvum (Calibr) (Replicate 1) is over 30000 nM; in the data set on NLuc C. parvum (Calibr) (Replicate 2) it was 4760 nM; in data set [1] (Calibr Crypto Panel 2), 9040 nM; in [2] it was 3940 nM; in data set [4] (setting [24]), 11300 nM; in [4] (setting [25]), 6050 nM. In addition, the concentration for a half-maximal effect (EC50) in data set [4] (Calibr Crypto Panel 2, read-out: Bunch Grass Farm C. parvum Spot Count EC50) was 6990 nM; in the data set with C. hominis TU502 isolate (Calibr Crypto Panel 2, 2018-07-02, read-out: C. hominis Spot Count EC50), 5820 nM; in the data set with C. hominis TU502 isolate (setting [28]), 8220 nM; in the data set with C. hominis TU502 isolate (setting [30]), 6030 nM. In addition, the 90% effect concentration (EC90) with NLuc C. parvum (Calibr) (Replicate 1) is over 30000 nM; in the data set on NLuc C. parvum (Calibr) (Replicate 2), 25000 nM; in [1] (Calibr Crypto Panel 2) it was 15700 nM; in data set [2], 20800 nM; in data set [4] (setting [26]), 19600 nM; in data set [4] (setting [27]), 12000 nM. Moreover, the concentration for an effect of 90% (EC90) worked out at 16800 nM in data set [4] (Calibr Crypto Panel 2, read-out: Bunch Grass Farm C. parvum Spot Count EC90); 278000 nM with C. hominis TU502 isolate (Calibr Crypto Panel 2, read-out: C. hominis Spot Count EC90); 14200 nM in the data set on C. hominis TU502 isolate (setting [29]); 12300 nM in the data set on C. hominis TU502 isolate (setting [31]). For the same molecule, the CC50 at 72 h in the data set “72H HEK293T Cytotoxicity” is 40300 nM. Also, the half-maximal cytotoxic concentration (CC50) in data set [3] (setting [5]), in data set [3] (setting [6]), in data set [3] (setting [7]), in data set [3] (setting [8]), in data set [3] (setting [9]) and in [3] (setting [10]) was over 30000 nM throughout. Also, it took 19900 nM to reach half-maximal cytotoxicity in data set [3] (setting [11]) (CC50).

In the case of `CC(C)/N=c1\cc2n(-c3ccc(Cl)cc3)c3ccccc3nc-2cc1Nc1ccc(Cl)cc1` [Clofazimine], the concentration for a half-maximal effect (EC50) with NLuc C. parvum (Calibr) (Replicate 1) turned out to be 23.6 nM; in the data set on NLuc C. parvum (Calibr) (Replicate 2), 67 nM; in data set [4] (setting [24]), 119 nM; in data set [4] (setting [25]), 678 nM; with C. hominis TU502 isolate (setting [28]) it was 517 nM; in the data set with C. hominis TU502 isolate (setting [30]), 707 nM. Moreover, the EC90 turned out to be 392 nM with NLuc C. parvum (Calibr) (Replicate 1); 1370 nM in the data set with NLuc C. parvum (Calibr) (Replicate 2); 2710 nM in data set [4] (setting [26]); 1170 nM in data set [4] (setting [27]); 1190 nM in the data set on C. hominis TU502 isolate (setting [29]); 1520 nM with C. hominis TU502 isolate (setting [31]). The CC50 in data set [3] (setting [5]), in data set [3] (setting [6]), in [3] (setting [7]), in [3] (setting [8]), in data set [3] (setting [9]) and in data set [3] (setting [10]) was over 25000 nM throughout.

With `Cn1ccc2cc3c(cc21)CCN3C(=O)Nc1cccnc1` [SB 206553, reference compound], the IC50 on 5-HT2B was 21 nM.
